Laboratory results from patent publication US9290529B2, “Carbonic anhydrase inhibitors and method of their production” (USTAV ORGANICKE CHEMIE A BIOCHEMIE AKADEMIE VED CESKE …, priority 2011, dated 2016).
Read-outs that look alike come from different tables or passages of the source.

Key:
[1] = molecular target: T1, human carbonic anhydrase IX (hCA IX) (Homo sapiens, UniProt Q16790); experiment: Colorimetric carbonic anhydrase inhibition assay (CO2 hydration, phenol red), hCA IX; assay type: biochemical; details: for Selectivity to hCA IX IC50 (hCA II)/IC50 (hCA IX): ratio of IC50 values
T1 construct: Construct contained the extracellular CA domain (amino acid residues 139-390) cloned into the pMT/BiP/V5-His vector; His tag (from vector pMT/BiP/V5-His) (C); BiP secretion signal (from vector pMT/BiP/V5-His) (N); made in house; host or cells: Drosophila expression system (Invitrogen), insect cells, secreted into SF 900 II medium
Procedure: The compounds were assayed for inhibition activity of two isoforms of human carbonic anhydrase: hCA II and hCA IX. The human carbonic anhydrase II (HCA II) was purchased from Sigma Aldrich (Cat. No. C6165) in the form of lyophilized protein, which was dissolved before use in 10 mmol·l^−1 HEPES pH 7.0 to a concentration of 300 μmol·l^−1 and further diluted as required. Human carbonic anhydrase IX (HCA IX) was prepared by recombinant expression system in insect (Drosophila expression system, Invitrogen). […] This protein was further purified from media by chelating chromatography carrier His-Select Nickel Affinity Gel (Sigma, Cat No. P6611) and gel chromatography (Superdex 200 GL 30/300, GE Healthcare) according to the manufacturer's recommendations.
The principle of the method is based on measuring the rate of acidification of the solution that is observed as the color-shift of the acid-base-indicator (fenol red). The reaction was conducted in a glass tube placed in an ice bath (0° C., all stock solutions and enzymes were kept at the same temperature). […] This was followed by a CO2 saturation (stream flow 50 ml/min.) using a needle (18 G) up to color transition of fenol-red from red to yellow (typically 60 seconds by default). […] End point of reaction was determined by visual comparison with reference tube containing acid-base indicator (0.01% (wt./vol.) Fenol-red) and the pH adjusted to 7.0. […] Molar activity was calculated according to the formula:
[formula] where tB is the time of negative control without enzyme and tS is the time measured with an enzyme sample (and inhibitor), nprot is the number of moles of protein present in the sample. The value of IC50 for the inhibitor concentration corresponds inhibitor contraction required to decrease the specific activity to half of the value of non-inhibited enzyme. Selectivity towards CA IX inhibitor was calculated as the ratio of IC50 values for inhibition of HCA II against the value of IC50 for inhibition CA IX enzyme.

HCT116 cells = experiment: Flow cytometric measurement of intracellular pH (pHi), HCT116 expressing CAIX; assay type: cell-based, human; details: for pHi: HCT116, carboranes at 1 μM, 24 hour incubation, control 7.516; for intracellular acidification in HCT116 cells: carboranes 1 μM versus acetazolamide 50 μM
Procedure: The effect of carborane CAIX (carbonic anhydrase IX) inhibitors was evaluated on colorectal cancer cell line HCT116 expressing CAIX enzyme versus CA IX negative cell line of T-lymphoblastic leukemia CCRF-CEM. Acetazolamide, a known inhibitor of CAIX, was used as a standard. HCT116/CCRF-CEM cells were cultivated in McCoy/RPMI Media supplemented with 10% FCS and antibiotics and seeded at high density ([…] per 3.5 cm dish) to induce pericellular hypoxia and thus stimulate CA IX expression. Measurement of pHi was assessed as described in Cianchi et al. [Cianchi F., et al. Selective inhibition of carbonic anhydrase IX decreases cell proliferation and induces […] apoptosis in human cancer cells. The Journal of Pharmacology and Experimental Therapeutics, 2010, Vol. 334, No. 3, 710-719].
[…] The pHi was measured by flow cytometry in cell cultures pretreated with 10 μM of pH sensitive probe carboxyseminaphtorhoda-fluor-1-acetoxymethyl ester (SNARF, Invitrogen, CA) for 15 min at 37° C. After incubation, the cells were washed twice with PBS. Because the addition of bicarbonate can affect pHi, all incubation and cell washes were performed in bicarbonate-free buffer. SNARF was excited at 488 nm and emitted at 580 and 640 nm. The ratio of the emission wavelengths at 640/580 nm was then used to estimate the pHi from a calibration curve. The calibration curve was prepared by nigericin clamp technique. In this method, after the SNARF labeling of untreated cells, aliquots of cell suspensions were re-suspended in a high potassium containing buffer at specific pH (usually 6.8, 7.0, 7.2, 7.4, 7.6 and 7.8). The cell suspensions were then clamped at a specific pH value by the addition of 0.03 μM nigericin (Sigma-Aldrich). Nigericin is a ionophore that allows the exchange of H for K ions, thus abolishing the pH gradient across the cell membrane. When the internal and external K concentrations are approximately equal, the pH rapidly equilibrates to the pH of the bathing solution. A total of 20,000 events were acquired on a FACS ARIA II flow cytometer (Becton. Dickinson) for further analysis.
The fluorescent ratio values (640/580 nm) calculated for each pH point were further used to construct calibration curve in Prism software (GraphPad Software, Inc., San Diego, Calif.), from which the pHi values in treated cells were determined (Table 3).

[2] = 0° C., HEPES pH 7.0, recombinant extracellular CA domain, read-out: IC50 (hCA IX)
[3] = reference value in legend of FIG. 34, read-out: IC 50 CAIX (figure legend)

| Substance | IC50 [1, 2] | Selectivity to hCA IX IC50 (hCA II)/IC50 (hCA IX) [1] | pHi (HCT116 cells) | intracellular acidification in HCT116 cells (HCT116 cells) | IC50 [1, 3] |
| --- | --- | --- | --- | --- | --- |
| 1-methylenesulfamide-3,3′-commo-bis(1,2-dicarba-3-cobalta(III)-closo-dodecabor)ate (1-) [CB-5] | 40 nM | 92.5 | 7.483 |  |  |
| 7-methylensulfamide-(7,8-nido-dicarbaundekaborate) (1-) [CB-2] | 2600 nM |  | 7.572 |  |  |
| 8-butyloxysulfamide-3,3′-commo-bis(decahydro-1,2-dicarba-3-cobalta(III)-closo-dodekabor)ate (1-) [CB-16] | 280 nM | 2.43 | 7.563 |  | 280 nM |
| 8-ethylaminomethylsulfamide-8″-methoxy-3,3′-commo-bis(decahydro-1,2-dicarba-3-cobalta(III)-closo-dodecabor)ate (1-) [CB-15] | 2000 nM | 7.00 | 7.343 | better than acetazolamide |  |
| 8-methylensulfamide-8″-methoxy-3,3′-commo-bis(1,2-dicarba-3-cobalta(III)-closo-dodecabor)ate (1-) [CB-4] | 50 nM | 100 | 7.538 |  | 50 nM |
| 9-sulfamide-9′-amine-2,2′-commo-bis(1,7,9-trikarba-2-ferra(II)-kloso-dodekabor)ane [CB-12] | 1490 nM | 10.0 | 7.704 |  |  |
| Di(methylenesulfamide)-1,7-dicarba-closo-dodecaborane [CB-20] | 490 nM | 3.27 | 7.561 |  |  |

More lines, in order of falling IC50 [1, 2], values ahead:

| IC50 [1, 2] | Selectivity to hCA IX IC50 (hCA II)/IC50 (hCA IX) [1] | Substance | pHi (HCT116 cells) | intracellular acidification in HCT116 cells (HCT116 cells) | IC50 [1, 3] |
| --- | --- | --- | --- | --- | --- |
| 9680 nM | 7.0 | 10-sulfamide-9′-amine-2,2′-commo-(1,7,10-tricarba-1′,7′,9′-tricarba-2-ferra (II)-closo-dodekabor)ane [CB-10] | 7.688 |  |  |
| 3600 nM |  | 1-sulfamide-closo-1-carbadodecaborate (1-) [CB-3] | 7.479 |  |  |
| 2000 nM | 4.45 | 1-methylenesulfamide-1,7-dicarba-closo-dodecaborane [CB-19] | 7.542 |  |  |
| 1080 nM | 36.2 | 7-methylensulfamide-8-phenyl-(7,8-nido-dikarbaundekabor)ate (1-) [CB-6] | 7.192 | better than acetazolamide |  |
| 370 nM | 6.59 | 1-methylenesulfamide-9-phenyl-1,2-dicarba-closo-dodecaborane and 1-methylene-sulfamide-12-phenyl-1,2-dicarba-closo-dodecaborane [CB-8] | 7.112 | better than acetazolamide |  |
| 370 nM |  | 1-methylensulfamide-1,2-dicarba-closo-dodekaborane [CB-1] | 7.561 |  |  |
| 350 nM | 34.3 | 8-diethyleneoxysulfamide-3,3′-commo-bis(decahydro-1,2-dicarba-3-cobalta(III)-closo-dodekabor)ate (1-) [CB-17] | 7.571 |  |  |
| 80 nM | 48.8 | 8-propylenesulfamide-7-phenyl-(7,8-nido-dicarbaundecabor)ate (1-) [CB-13] | 7.51 |  |  |
